What was measured:
Type in all cases: cell-based
[1] = target: T1, Ba/F3 cells with EGFR WT (Homo sapiens, UniProt P00533); experiment: EGFR activity: Ba/F3 cell viability (CellTiter-Glo, 72 h), EGFR WT; conditions: read-out: BaF3 WT IC50
T1 construct: expressed in transfected cells; host or cells: Ba/F3 (murine pro-B cells), retroviral transduction, puromycin selection, maintained with EGF

[2] = target: T2, Ba/F3 cells with EGFR exon 20 NPG Ins D770_N771 (Homo sapiens, UniProt P00533, INS770NPG); experiment: EGFR activity: Ba/F3 cell viability (CellTiter-Glo, 72 h), EGFR exon 20 NPG insertion; conditions: EGFR exon 20 NPG Ins D770_N771, cell viability, read-out: BaF3 NPG IC50
T2 construct: expressed in transfected cells; host or cells: Ba/F3 (murine pro-B cells), retroviral transduction, puromycin selection, IL3-independent pool
T2 sequence (P00533 with tags, fused parts or gaps INS770NPG): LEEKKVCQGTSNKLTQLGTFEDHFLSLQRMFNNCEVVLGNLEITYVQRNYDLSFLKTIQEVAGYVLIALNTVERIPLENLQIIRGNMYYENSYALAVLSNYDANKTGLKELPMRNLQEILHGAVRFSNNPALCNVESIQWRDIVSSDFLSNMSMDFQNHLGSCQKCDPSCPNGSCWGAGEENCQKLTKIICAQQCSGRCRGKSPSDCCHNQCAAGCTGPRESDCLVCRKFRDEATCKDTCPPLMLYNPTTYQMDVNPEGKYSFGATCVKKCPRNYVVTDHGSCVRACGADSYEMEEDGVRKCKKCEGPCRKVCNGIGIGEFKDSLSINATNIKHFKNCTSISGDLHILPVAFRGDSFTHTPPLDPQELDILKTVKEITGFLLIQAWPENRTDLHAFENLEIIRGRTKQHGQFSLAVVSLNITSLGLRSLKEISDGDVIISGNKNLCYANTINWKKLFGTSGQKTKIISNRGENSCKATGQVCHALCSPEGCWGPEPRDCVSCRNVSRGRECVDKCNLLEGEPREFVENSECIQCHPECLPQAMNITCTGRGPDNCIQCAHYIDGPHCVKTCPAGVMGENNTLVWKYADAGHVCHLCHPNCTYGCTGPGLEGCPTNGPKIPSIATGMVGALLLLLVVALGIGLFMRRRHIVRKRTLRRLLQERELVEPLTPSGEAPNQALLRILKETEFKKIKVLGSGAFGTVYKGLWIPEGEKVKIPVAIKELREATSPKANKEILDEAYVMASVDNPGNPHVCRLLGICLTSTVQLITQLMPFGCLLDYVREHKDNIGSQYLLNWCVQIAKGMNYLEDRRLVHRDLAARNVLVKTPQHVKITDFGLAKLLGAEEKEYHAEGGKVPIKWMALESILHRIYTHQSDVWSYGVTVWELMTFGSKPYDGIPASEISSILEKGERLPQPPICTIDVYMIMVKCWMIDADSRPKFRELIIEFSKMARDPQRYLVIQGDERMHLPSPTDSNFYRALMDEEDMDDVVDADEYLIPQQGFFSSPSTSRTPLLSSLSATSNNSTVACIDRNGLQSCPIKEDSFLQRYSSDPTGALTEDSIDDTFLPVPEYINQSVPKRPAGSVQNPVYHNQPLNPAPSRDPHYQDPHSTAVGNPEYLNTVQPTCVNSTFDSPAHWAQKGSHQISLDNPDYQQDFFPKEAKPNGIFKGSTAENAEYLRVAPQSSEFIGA

[3] = target: T3, Ba/F3 cells with EGFR exon 20 ASV Ins V769_D770 (Homo sapiens, UniProt P00533, INS769ASV); experiment: EGFR activity: Ba/F3 cell viability (CellTiter-Glo, 72 h), EGFR exon 20 ASV insertion; conditions: EGFR exon 20 ASV Ins V769_D770, cell viability, read-out: BaF3 ASV IC50
T3 construct: expressed in transfected cells; host or cells: Ba/F3 (murine pro-B cells), retroviral transduction, puromycin selection, IL3-independent pool
T3 sequence (P00533 with tags, fused parts or gaps INS769ASV): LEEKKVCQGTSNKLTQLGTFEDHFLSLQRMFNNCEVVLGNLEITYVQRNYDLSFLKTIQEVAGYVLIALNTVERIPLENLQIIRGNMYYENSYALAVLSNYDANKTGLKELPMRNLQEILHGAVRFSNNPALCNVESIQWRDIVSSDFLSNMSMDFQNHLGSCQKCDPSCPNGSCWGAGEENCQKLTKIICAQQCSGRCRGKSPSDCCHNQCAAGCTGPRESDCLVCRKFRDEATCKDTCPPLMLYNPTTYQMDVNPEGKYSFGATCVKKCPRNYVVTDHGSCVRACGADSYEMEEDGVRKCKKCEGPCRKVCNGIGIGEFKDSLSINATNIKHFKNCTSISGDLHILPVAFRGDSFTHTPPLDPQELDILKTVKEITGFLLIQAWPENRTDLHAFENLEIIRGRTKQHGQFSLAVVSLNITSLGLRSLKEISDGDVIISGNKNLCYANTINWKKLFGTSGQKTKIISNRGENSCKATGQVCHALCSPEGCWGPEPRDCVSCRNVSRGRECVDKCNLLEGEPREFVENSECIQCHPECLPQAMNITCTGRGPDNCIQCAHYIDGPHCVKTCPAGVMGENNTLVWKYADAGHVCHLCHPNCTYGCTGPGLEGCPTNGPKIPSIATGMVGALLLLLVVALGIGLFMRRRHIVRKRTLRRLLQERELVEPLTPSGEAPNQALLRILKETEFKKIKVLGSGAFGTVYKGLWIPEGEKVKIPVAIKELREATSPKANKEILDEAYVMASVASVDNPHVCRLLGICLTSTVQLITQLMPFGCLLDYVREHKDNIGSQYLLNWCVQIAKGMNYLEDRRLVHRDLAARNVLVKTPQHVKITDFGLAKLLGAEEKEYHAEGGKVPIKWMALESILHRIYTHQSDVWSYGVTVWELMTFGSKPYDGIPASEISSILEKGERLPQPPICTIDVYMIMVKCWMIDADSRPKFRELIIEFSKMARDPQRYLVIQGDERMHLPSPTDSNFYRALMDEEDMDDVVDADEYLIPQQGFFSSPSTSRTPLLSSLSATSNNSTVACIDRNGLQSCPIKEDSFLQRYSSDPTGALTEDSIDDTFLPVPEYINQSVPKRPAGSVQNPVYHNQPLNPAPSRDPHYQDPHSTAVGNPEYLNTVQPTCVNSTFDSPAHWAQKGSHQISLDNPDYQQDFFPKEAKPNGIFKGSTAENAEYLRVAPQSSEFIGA

[4] = target: T4, pEGFR in CUTO14 cells (Homo sapiens, UniProt P00533, DUP767-769); experiment: Inhibitor activity on EGFR phosphorylation (pEGFR AlphaLISA, 2 h), CUTO14 cells
T4 construct: endogenous in cells; host or cells: CUTO14 cells
T4 sequence (P00533 with tags, fused parts or gaps DUP767-769): as the sequence (P00533 with tags, fused parts or gaps INS769ASV) above
Procedure: CUTO14 cells were obtained from Dr. Robert C. Doebele at the University of Colorado.
Shake 350 rpm for 1 hr in the dark • 3.4 Prepare donor mix under low light conditions prior to use. Dispense 5 μL of donor mix to all the wells. Mix well on the shaker, seal and wrap in aluminum foil and incubate 1.5 hrs at room temperature in the dark • 3.5 Transfer 18.5 μL mixture to OptiPlate 384, and read using an Envision.

T1 sequence (P00533 25-1210): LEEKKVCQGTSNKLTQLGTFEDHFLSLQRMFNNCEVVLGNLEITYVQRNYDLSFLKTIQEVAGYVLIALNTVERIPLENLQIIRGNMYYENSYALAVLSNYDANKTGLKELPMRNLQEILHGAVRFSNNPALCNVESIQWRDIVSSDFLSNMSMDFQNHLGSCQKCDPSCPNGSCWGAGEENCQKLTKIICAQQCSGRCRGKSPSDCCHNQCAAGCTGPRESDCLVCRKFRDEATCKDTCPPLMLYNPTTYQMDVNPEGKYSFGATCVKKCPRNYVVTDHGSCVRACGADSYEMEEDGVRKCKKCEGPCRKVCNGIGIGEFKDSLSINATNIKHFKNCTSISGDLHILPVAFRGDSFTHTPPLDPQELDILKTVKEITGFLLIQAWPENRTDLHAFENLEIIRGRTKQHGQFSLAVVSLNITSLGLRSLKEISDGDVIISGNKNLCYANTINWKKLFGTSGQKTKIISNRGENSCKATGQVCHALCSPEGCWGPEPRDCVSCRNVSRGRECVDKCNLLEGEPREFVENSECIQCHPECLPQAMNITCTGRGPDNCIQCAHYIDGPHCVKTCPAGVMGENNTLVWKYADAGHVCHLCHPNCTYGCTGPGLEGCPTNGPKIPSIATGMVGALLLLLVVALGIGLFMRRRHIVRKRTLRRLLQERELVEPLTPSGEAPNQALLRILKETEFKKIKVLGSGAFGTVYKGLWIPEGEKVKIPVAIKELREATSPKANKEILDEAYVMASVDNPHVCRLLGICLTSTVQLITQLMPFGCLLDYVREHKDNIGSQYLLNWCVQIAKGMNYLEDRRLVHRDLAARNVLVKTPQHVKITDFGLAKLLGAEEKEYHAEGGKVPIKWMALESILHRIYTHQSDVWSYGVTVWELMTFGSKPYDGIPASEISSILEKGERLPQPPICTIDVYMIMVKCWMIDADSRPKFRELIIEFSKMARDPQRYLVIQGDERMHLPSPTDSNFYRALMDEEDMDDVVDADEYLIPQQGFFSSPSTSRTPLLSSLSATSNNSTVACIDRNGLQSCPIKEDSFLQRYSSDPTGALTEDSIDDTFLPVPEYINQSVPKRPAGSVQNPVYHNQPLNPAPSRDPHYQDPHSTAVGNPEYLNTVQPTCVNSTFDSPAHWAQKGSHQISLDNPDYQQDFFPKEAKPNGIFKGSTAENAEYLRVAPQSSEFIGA

Row | Compound | IC50 [1] | IC50 [2] | IC50 [3] | IC50 [4]
1 | C=CC(=O)N1[C@@H](COc2cnccc2-c2[nH]c3c(c2Nc2cccc(Cl)c2OC)C(=O)NCC3)C[C@@H]1C [compound 272] | < 100 nM | < 100 nM | < 100 nM | < 100 nM
2 | C=CC(=O)N1[C@H](COc2cnccc2-c2[nH]c3c(c2Nc2cccc(Cl)c2OC)C(=O)NCC3)C[C@@H]1C [compound 273] | < 100 nM | < 100 nM | < 100 nM | < 100 nM
3 | CC#CC(=O)N1CCOC[C@H]1COc1cnccc1-c1[nH]c2c(c1Nc1cccc(F)c1OC)C(=O)NCC2 [compound 292] | > 1000 nM | 100 to 1000 nM | 100 to 1000 nM | 100 to 1000 nM
4 | C=CC(=O)N1[C@@H](C#Cc2cnccc2-c2[nH]c3c(c2Nc2cccc(F)c2OC)C(=O)NCC3)C[C@@H]2C[C@@H]21 [compound 301] | 100 to 1000 nM | < 100 nM | < 100 nM | < 100 nM
5 | C=CC(=O)N1CCC[C@]1(C)C#Cc1cnccc1-c1[nH]c2c(c1Nc1cccc(F)c1CC)C(=O)NCC2 [compound 305] | 100 to 1000 nM | < 100 nM | < 100 nM | < 100 nM
6 | CC#CC(=O)N1CC[C@]1(C)COc1cnccc1-c1[nH]c2c(c1Nc1cccc(F)c1OC)C(=O)NCC2 [compound 307] | 100 to 1000 nM | < 100 nM | < 100 nM | < 100 nM
7 | CC#CC(=O)N1CC[C@]1(C)COc1cnccc1-c1[nH]c2c(c1Nc1cccc(Cl)c1OC)C(=O)NCC2 [compound 308] | 100 to 1000 nM | < 100 nM | < 100 nM | < 100 nM
8 | C=CC(=O)NC1(C#Cc2cnccc2-c2[nH]c3c(c2Nc2cccc(F)c2OC)C(=O)NCC3)CN(C)C1 [compound 336] | > 1000 nM | 100 to 1000 nM | 100 to 1000 nM | 100 to 1000 nM
9 | CC#CC(=O)N1CC[C@@H]1COc1cnccc1-c1[nH]c2c(c1Nc1cc(F)cc(Cl)c1OC)C(=O)NCC2 [compound 346] | 100 to 1000 nM | < 100 nM | < 100 nM | < 100 nM
10 | CC#CC(=O)N1CC[C@@H]1COc1cnccc1-c1[nH]c2c(c1Nc1cc(F)cc(F)c1OC)C(=O)NCC2 [compound 347] | 100 to 1000 nM | < 100 nM | < 100 nM | < 100 nM
11 | CC#CC(=O)N1CC[C@@H]1COc1cnccc1-c1[nH]c2c(c1Nc1cccc(F)c1F)C(=O)NCC2 [compound 350] | 100 to 1000 nM | < 100 nM | < 100 nM | < 100 nM
12 | CC#CC(=O)N1CC[C@@]1(C)COc1cnccc1-c1[nH]c2c(c1Nc1cccc(F)c1OC)C(=O)NCC2 [compound 357] | > 1000 nM | 100 to 1000 nM | 100 to 1000 nM | 100 to 1000 nM
13 | CC#CC(=O)N1CC[C@@]1(C)COc1cnccc1-c1[nH]c2c(c1Nc1cccc(Cl)c1OC)C(=O)NCC2 [compound 358] | > 1000 nM | 100 to 1000 nM | 100 to 1000 nM | 100 to 1000 nM
14 | C=C(F)C(=O)N1CC[C@@H]1COc1cnccc1-c1[nH]c2c(c1Nc1cc(F)cc(F)c1OC)C(=O)NCC2 [compound 365] | 100 to 1000 nM | 100 to 1000 nM | 100 to 1000 nM | 100 to 1000 nM
15 | CC#CC(=O)N1CC[C@@H]1C#Cc1cnccc1-c1[nH]c2c(c1Nc1cccc(F)c1OC)C(=O)NCC2 [compound 373] | < 100 nM | < 100 nM | < 100 nM | < 100 nM
16 | CC#CC(=O)N1CC[C@H]1C#Cc1cnccc1-c1[nH]c2c(c1Nc1cccc(F)c1OC)C(=O)NCC2 [compound 374] | 100 to 1000 nM | < 100 nM | < 100 nM | < 100 nM
17 | C=CC(=O)NC1(C#Cc2cnccc2-c2[nH]c3c(c2Nc2cccc(Cl)c2OC)C(=O)NCC3)CCOCC1 [compound 382] | 100 to 1000 nM | < 100 nM | < 100 nM | < 100 nM
18 | C=CC(=O)NC1(C#Cc2cnccc2-c2[nH]c3c(c2Nc2cccc(F)c2OC)C(=O)NCC3)CCOCC1 [compound 383] | > 1000 nM | < 100 nM | 100 to 1000 nM | 100 to 1000 nM
19 | C=CC(=O)NC(C)(C)C#Cc1cnccc1-c1[nH]c2c(c1Nc1cccc(F)c1C)C(=O)NCC2 [compound 385] | < 100 nM | < 100 nM | < 100 nM | < 100 nM
20 | C=CC(=O)N[C@@]1(C#Cc2cnccc2-c2[nH]c3c(c2Nc2cccc(F)c2C)C(=O)NCC3)CCOC1 [compound 386] | 100 to 1000 nM | < 100 nM | < 100 nM | < 100 nM

Row | Compound | IC50 [1] | IC50 [2] | IC50 [3] | IC50 [4]
21 | C=CC(=O)N[C@]1(C#Cc2cnccc2-c2[nH]c3c(c2Nc2cccc(F)c2C)C(=O)NCC3)CCOC1 [compound 387] | 100 to 1000 nM | < 100 nM | < 100 nM | < 100 nM
22 | COc1c(Cl)cccc1Nc1c(-c2ccncc2C#CC(C)(C)NC(=O)/C=C/CN(C)C)[nH]c2c1C(=O)NCC2 [compound 388] | 100 to 1000 nM | < 100 nM | < 100 nM | < 100 nM
23 | C=C(F)C(=O)NC(C)(C)C#Cc1cnccc1-c1[nH]c2c(c1Nc1cccc(F)c1OC)C(=O)NCC2 [compound 389] | 100 to 1000 nM | < 100 nM | < 100 nM | < 100 nM
24 | C=C(F)C(=O)NC(C)(C)C#Cc1cnccc1-c1[nH]c2c(c1Nc1cccc(Cl)c1OC)C(=O)NCC2 [compound 390] | 100 to 1000 nM | < 100 nM | < 100 nM | < 100 nM
25 | COc1c(F)cccc1Nc1c(-c2ccncc2C#CC(C)(C)NC(=O)/C=C/CN2CCOCC2)[nH]c2c1C(=O)NCC2 [compound 391] | > 1000 nM | 100 to 1000 nM | 100 to 1000 nM | 100 to 1000 nM
26 | COc1c(F)cccc1Nc1c(-c2ccncc2C#CC(C)(C)NC(=O)/C=C/CN2CCCC2)[nH]c2c1C(=O)NCC2 [compound 392] | 100 to 1000 nM | < 100 nM | < 100 nM | < 100 nM
27 | COc1c(F)cccc1Nc1c(-c2ccncc2C#CC(C)(C)NC(=O)/C=C/CN2CC(OC)C2)[nH]c2c1C(=O)NCC2 [compound 393] | 100 to 1000 nM | < 100 nM | < 100 nM | < 100 nM
28 | COc1c(F)cccc1Nc1c(-c2ccncc2C#CC(C)(C)NC(=O)/C=C/CN[C@@H]2CCOC2)[nH]c2c1C(=O)NCC2 [compound 394] | > 1000 nM | 100 to 1000 nM | 100 to 1000 nM | 100 to 1000 nM
29 | COc1c(F)cccc1Nc1c(-c2ccncc2C#CC(C)(C)NC(=O)/C=C/CN[C@H]2CCOC2)[nH]c2c1C(=O)NCC2 [compound 395] | > 1000 nM | 100 to 1000 nM | 100 to 1000 nM | 100 to 1000 nM
30 | C=CC(=O)NC1(C#Cc2cnccc2-c2[nH]c3c(c2Nc2cccc(Cl)c2OC)C(=O)NCC3)CC(F)(F)C1 [compound 400] | 100 to 1000 nM | < 100 nM | < 100 nM | < 100 nM
31 | C=CC(=O)NC1(C#Cc2cnccc2-c2[nH]c3c(c2Nc2cccc(F)c2OC)C(=O)NCC3)CC(F)(F)C1 [compound 401] | 100 to 1000 nM | < 100 nM | < 100 nM | < 100 nM
32 | CC#CC(=O)N1CC[C@@H]1COc1cnccc1-c1[nH]c2c(c1Nc1cccc(F)c1Cl)C(=O)NCC2 [compound 406] | < 100 nM | < 100 nM | < 100 nM | < 100 nM
33 | CC#CC(=O)N1CC[C@@H]1COc1cnccc1-c1[nH]c2c(c1Nc1cccc(Cl)c1F)C(=O)NCC2 [compound 407] | < 100 nM | < 100 nM | < 100 nM | < 100 nM
34 | C=CC(=O)NC1(C#Cc2cnccc2-c2[nH]c3c(c2Nc2cccc(Cl)c2OC)C(=O)NCC3)CCN(C)CC1 [compound 411] | > 1000 nM | 100 to 1000 nM | 100 to 1000 nM | 100 to 1000 nM
35 | COc1c(Cl)cccc1Nc1c(-c2ccncc2C#CC2(NC(=O)/C=C/CN(C)C)COC2)[nH]c2c1C(=O)NCC2 [compound 416] | > 1000 nM | 100 to 1000 nM | 100 to 1000 nM | < 100 nM
36 | COc1c(F)cccc1Nc1c(-c2ccncc2C#CC2(NC(=O)/C=C/CN(C)C)COC2)[nH]c2c1C(=O)NCC2 [compound 417] | > 1000 nM | 100 to 1000 nM | 100 to 1000 nM | 100 to 1000 nM
37 | COc1c(F)cccc1Nc1c(-c2ccncc2C#C[C@]2(NC(=O)/C=C/CN(C)C)CCOC2)[nH]c2c1C(=O)NCC2 [compound 418] | > 1000 nM | 100 to 1000 nM | 100 to 1000 nM | 100 to 1000 nM
38 | COc1c(F)cccc1Nc1c(-c2ccncc2C#C[C@@]2(NC(=O)/C=C/CN(C)C)CCOC2)[nH]c2c1C(=O)NCC2 [compound 419] | > 1000 nM | 100 to 1000 nM | 100 to 1000 nM | 100 to 1000 nM
39 | COc1c(Cl)cccc1Nc1c(-c2ccncc2C#C[C@@]2(NC(=O)/C=C/CN(C)C)CCOC2)[nH]c2c1C(=O)NCC2 [compound 420] | 100 to 1000 nM | < 100 nM | < 100 nM | < 100 nM
40 | COc1c(Cl)cccc1Nc1c(-c2ccncc2C#C[C@]2(NC(=O)/C=C/CN(C)C)CCOC2)[nH]c2c1C(=O)NCC2 [compound 421] | > 1000 nM | < 100 nM | < 100 nM | < 100 nM
